DC50 data for 15 molecules are collected here from patent US20260317299A1, “PIKFYVE PROTEIN KINASE DEGRADATION AGENT AND USE THEREOF” (Shanghai Institute of Organic Chemistry, Chinese Academy of …, priority 2023, published 2026).

For the test, the target named is T1, PIKfyve (Homo sapiens, UniProt Q9Y2I7).
T1 construct: endogenous in cells; host or cells: VCaP
T1 sequence (Q9Y2I7 whole entry): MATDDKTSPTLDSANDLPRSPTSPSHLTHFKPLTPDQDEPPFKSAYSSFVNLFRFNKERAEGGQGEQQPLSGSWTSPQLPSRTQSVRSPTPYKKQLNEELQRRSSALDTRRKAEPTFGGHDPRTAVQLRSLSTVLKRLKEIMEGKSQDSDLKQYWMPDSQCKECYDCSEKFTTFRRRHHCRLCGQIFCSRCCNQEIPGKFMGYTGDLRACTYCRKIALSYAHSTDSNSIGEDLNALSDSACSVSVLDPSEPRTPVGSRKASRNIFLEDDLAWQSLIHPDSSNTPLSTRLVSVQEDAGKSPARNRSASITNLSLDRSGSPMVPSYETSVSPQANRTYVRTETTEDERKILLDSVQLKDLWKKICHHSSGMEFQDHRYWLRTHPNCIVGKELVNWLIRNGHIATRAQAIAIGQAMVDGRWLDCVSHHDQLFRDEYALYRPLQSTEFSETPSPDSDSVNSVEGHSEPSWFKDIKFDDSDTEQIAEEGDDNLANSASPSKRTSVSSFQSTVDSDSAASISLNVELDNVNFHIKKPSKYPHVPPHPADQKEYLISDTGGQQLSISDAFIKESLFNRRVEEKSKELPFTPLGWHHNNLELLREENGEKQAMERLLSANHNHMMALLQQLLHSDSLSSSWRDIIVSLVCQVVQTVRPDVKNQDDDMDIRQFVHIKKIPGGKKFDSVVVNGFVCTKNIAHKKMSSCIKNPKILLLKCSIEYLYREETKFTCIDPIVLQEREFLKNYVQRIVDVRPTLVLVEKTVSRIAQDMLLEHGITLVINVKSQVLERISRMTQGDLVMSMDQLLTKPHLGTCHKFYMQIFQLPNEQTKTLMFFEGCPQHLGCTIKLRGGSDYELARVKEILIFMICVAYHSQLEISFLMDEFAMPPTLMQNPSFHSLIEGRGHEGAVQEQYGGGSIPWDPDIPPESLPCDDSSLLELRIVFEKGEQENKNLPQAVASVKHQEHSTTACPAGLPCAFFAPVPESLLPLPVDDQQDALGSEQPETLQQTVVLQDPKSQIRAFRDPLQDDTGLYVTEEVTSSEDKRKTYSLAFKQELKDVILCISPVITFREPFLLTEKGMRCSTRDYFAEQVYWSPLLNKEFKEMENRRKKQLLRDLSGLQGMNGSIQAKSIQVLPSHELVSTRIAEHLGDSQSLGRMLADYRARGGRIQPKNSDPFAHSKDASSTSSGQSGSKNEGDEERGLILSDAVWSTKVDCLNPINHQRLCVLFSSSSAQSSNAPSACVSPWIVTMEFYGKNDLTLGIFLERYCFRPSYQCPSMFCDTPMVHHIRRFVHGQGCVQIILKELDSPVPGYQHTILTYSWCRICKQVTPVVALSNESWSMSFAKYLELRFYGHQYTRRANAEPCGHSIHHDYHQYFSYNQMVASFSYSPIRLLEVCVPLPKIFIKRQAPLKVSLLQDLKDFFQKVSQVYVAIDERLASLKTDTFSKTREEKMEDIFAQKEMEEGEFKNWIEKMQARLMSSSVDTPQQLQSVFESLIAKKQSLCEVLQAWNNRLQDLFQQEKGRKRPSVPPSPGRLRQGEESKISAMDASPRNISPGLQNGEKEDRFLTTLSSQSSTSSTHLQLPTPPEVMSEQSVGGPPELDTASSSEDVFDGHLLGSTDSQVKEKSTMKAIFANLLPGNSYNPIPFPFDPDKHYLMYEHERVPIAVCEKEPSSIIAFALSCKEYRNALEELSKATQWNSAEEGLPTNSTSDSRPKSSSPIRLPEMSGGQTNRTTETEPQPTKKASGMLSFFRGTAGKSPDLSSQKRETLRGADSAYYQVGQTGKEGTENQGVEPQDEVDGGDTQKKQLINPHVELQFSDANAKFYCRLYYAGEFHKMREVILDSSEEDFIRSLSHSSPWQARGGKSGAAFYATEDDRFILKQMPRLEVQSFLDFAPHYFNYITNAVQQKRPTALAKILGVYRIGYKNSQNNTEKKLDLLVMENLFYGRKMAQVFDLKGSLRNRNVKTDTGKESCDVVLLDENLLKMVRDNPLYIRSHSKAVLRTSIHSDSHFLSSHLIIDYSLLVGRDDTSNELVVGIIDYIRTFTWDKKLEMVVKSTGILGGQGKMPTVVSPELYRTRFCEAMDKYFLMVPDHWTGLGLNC
The test can be described thus: Degradation of PIKfyve proteins in VCaP tumor cells (24 h, Western blot). Type of test: cell-based. As to conditions: 37° C., compared with DMSO control, WB, read-out: DC50 (concentration that achieves 50% degradation activity). In short, it runs like this:
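VCaP cells (5×10^6 cells/ml) treated with a range of compound concentrations at 37° C for 24 h, then lysed in SDS buffer. PIKfyve level measured by Western blot with GAPDH as loading control and ECL detection. DC50 is the concentration giving 50% degradation relative to DMSO control.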
On the technique in general: Immunoblotting shows a protein as a band on a membrane.
In the case of `Cc1cccc(/C=N/Nc2cc(N3CCOCC3)nc(OCCc3ccc(NC(=O)CCCCCNC(=O)CC[C@H](NC(=O)[C@@H]4C[C@@H](O)CN4C(=O)[C@@H](NC(=O)C4(F)CC4)C(C)(C)C)c4ccc(-c5scnc5C)cc4)cc3)n2)c1` [Example 52, (2S,4R)-1-((S)-2-(1-fluorocyclopropane-1-carboxamido)-3,3-dimethylbutanoyl)-4-hydroxy-N—((S)-4-((6-((4-(2-((4-(2-((E)-3-methylbenzylidene)hydrazino)-6-morpholinopyrimidin-2-yl)oxy)ethyl)phenyl)amino)-6-oxohexyl)amino)-1-(4-(4-methylthiazol-5-yl)phenyl)4-oxobutyl)pyrrolidine-2-carboxamide], the DC50 was 1 to 100 nM.

In the case of `Cc1cccc(/C=N/Nc2cc(N3CCOCC3)nc(OCCc3ccc(NC(=O)CCCCCCCCCCC(=O)Nc4cccc5c4C(=O)N(C4CCC(=O)NC4=O)C5)cc3)n2)c1` (stereo not drawn) [Example 36, (E)-N^1-(2-(2,6-dioxopiperidin-3-yl)-3-oxoisoindolin-4-yl)-N^12-(4-(2-((4-(2-(3-methylbenzylidene)hydrazino)-6-morpholinopyrimidin-2-yl)oxy)ethyl)phenyl)dodecanediamide], the DC50 lay within 100 to 10000 nM.

Regarding `Cc1cccc(/C=N/Nc2cc(N3CCOCC3)nc(OCCc3ccc(NC(=O)CCCCCC(=O)N[C@H](C(=O)N4C[C@H](O)C[C@H]4C(=O)NCc4ccc(-c5scnc5C)cc4)C(C)(C)C)cc3)n2)c1` [Example 42, N^1—((S)-1-((2S,4R)-4-hydroxy-2-((4-(4-methylthiazol-5-yl)benzyl)carbamoyl)pyrrolidine-1-yl)-3,3-dimethyl-1-oxobutan-2-yl)-N^7-(4-(2-((4-(2-((E)-3-methylbenzylidene) hydrazino)-6-morpholinopyrimidin-2-yl)oxy)ethyl)phenyl)heptanediamide], the DC50 lay within 1 to 100 nM.

As to `Cc1cccc(-c2ccn(-c3cc(N4CCOCC4)nc(OCCc4ccc(N5CCN(C(=O)C[C@H](NC(=O)[C@@H]6C[C@@H](O)CN6C(=O)[C@@H](NC(=O)C6(F)CC6)C(C)(C)C)c6ccc(-c7scnc7C)cc6)CC5)cc4)n3)n2)c1` [Example 75, (2S,4R)-1-((S)-2-(1-fluorocyclopropane-1-carboxamido)-3,3-dimethylbutanoyl)-4-hydroxy-N—((S)-1-(4-(4-methylthiazol-5-yl)phenyl)-3-(4-(4-(2-((4-morpholino-6-(3-(m-tolyl)-1H-pyrazol-1-yl)pyrimidin-2-yl)oxy)ethyl)phenyl)piperazin-1-yl)-3-oxopropyl)pyrrolidine-2-carboxamide], the DC50 was in the range of 1 to 100 nM.

As to `Cc1cccc(/C=N/Nc2cc(N3CCOCC3)nc(OCCNC(=O)CCCCCCCCC(=O)N[C@H](C(=O)N3C[C@H](O)C[C@H]3C(=O)NCc3ccc(-c4scnc4C)cc3)C(C)(C)C)n2)c1` [Example 64, N^1—((S)-1-((2S,4R)-4-hydroxy-2-((4-(4-methylthiazol-5-yl)benzyl)carbamoyl)pyrrolidine-1-yl)-3,3-dimethyl-1-oxobutan-2-yl)-N^10-(2-((4-(2-((E)-3-methylbenzylidene) hydrazino)-6-morpholinopyrimidin-2-yl)oxy)ethyl)decanediamide], the DC50 was 100 to 10000 nM.

Regarding `Cc1cccc(/C=N/Nc2cc(N3CCOCC3)nc(OCCc3ccc(NC(=O)CCCCCCCCCCC(=O)Nc4cccc5c4CN(C4CCC(=O)NC4=O)C5=O)cc3)n2)c1` (stereo not drawn) [Example 23, (E)-N^1-(2-(2,6-dioxopiperidin-3-yl)-1-oxoisoindolin-4-yl)-N^12-(4-(2-((4-(2-(3-methylbenzylidene)hydrazino)-6-morpholinopyrimidin-2-yl)oxy)ethyl)phenyl)dodecanediamide], the DC50 lay in the range of 100 to 10000 nM.

With `Cc1cccc(-c2ccn(-c3cc(N4CCOCC4)nc(OCCc4ccc(NC(=O)NC5CN(C(=O)CC[C@H](NC(=O)[C@@H]6C[C@@H](O)CN6C(=O)[C@@H](NC(=O)C6(F)CC6)C(C)(C)C)c6ccc(-c7scnc7C)cc6)C5)cc4)n3)n2)c1` [Example 74, (2S,4R)-1-((S)-2-(1-fluorocyclopropane-1-carboxamido)-3,3-dimethylbutanoyl)-4-hydroxy-N—((S)-1-(4-(4-methylthiazol-5-yl)phenyl)-4-(3-(3-(4-(2-((4-morpholino-6-(3-(m-tolyl)-1H-pyrazol-1-yl)pyrimidin-2-yl)oxy)ethyl)phenyl)ureido)azetidin-1-yl)-4-oxobutyl) pyrrolidine-2-carboxamide], the DC50 was in the range of 1 to 100 nM.

Turning to `Cc1cccc(-c2ccn(-c3cc(N4CCOCC4)nc(OCCc4ccc(-c5ccc(NC(=O)C[C@H](NC(=O)[C@@H]6C[C@@H](O)CN6C(=O)[C@@H](NC(=O)C6(F)CC6)C(C)(C)C)c6ccc(-c7scnc7C)cc6)cc5)cc4)n3)n2)c1` [Example 87, (2S,4R)-1-((S)-2-(1-fluorocyclopropane-1-carboxamido)-3,3-dimethylbutanoyl)-4-hydroxy-N—((S)-1-(4-(4-methylthiazol-5-yl)phenyl)-3-((4′-(2-((4-morpholino-6-(3-(m-tolyl)-1H-pyrazol-1-yl)pyrimidin-2-yl)oxy)ethyl)-[1,1′-biphenyl]-4-yl)amino)-3-oxopropyl)pyrrolidine-2-carboxamide], the DC50 lay in the range of 1 to 100 nM.

As to `Cc1cccc(-c2ccn(-c3cc(N4CCOCC4)nc(OCCc4ccc(C#CC5CCN(C(=O)CC[C@H](NC(=O)[C@@H]6C[C@@H](O)CN6C(=O)[C@@H](NC(=O)C6(F)CC6)C(C)(C)C)c6ccc(-c7scnc7C)cc6)CC5)cc4)n3)n2)c1` [Example 71, (2S,4R)-1-((S)-2-(1-fluorocyclopropane-1-carboxamido)-3,3-dimethylbutanoyl)-4-hydroxy-N—((S)-1-(4-(4-methylthiazol-5-yl)phenyl)-4-(4-((4-(2-((4-morpholino-6-(3-(m-tolyl)-1H-pyrazol-1-yl)pyrimidin-2-yl)oxy)ethyl)phenyl)ethynyl)piperidin-1-yl)-4-oxobutyl) pyrrolidine-2-carboxamide], the DC50 is 1 to 100 nM.

Regarding `Cc1cccc(/C=N/Nc2cc(N3CCOCC3)nc(OCCc3ccc(NC(=O)CCCCCCC(=O)Nc4ccc5c(c4)C(=O)N(C4CCC(=O)NC4=O)C5)cc3)n2)c1` (stereo not drawn) [Example 30, (E)-N^1-(2-(2,6-dioxopiperidin-3-yl)-3-oxoisoindol-5-yl)-N^8-(4-(2-((4-(2-(3-methylbenzylidene)hydrazino)-6-morpholinopyrimidin-2-yl)oxy)ethyl)phenyl)octanediamide], the DC50 fell in the range of 1 to 100 nM.

For the molecule `Cc1cccc(-c2ccn(-c3cc(N4CCOCC4)nc(OC4CCN(c5ccc(N6CCN(C(=O)CC[C@H](NC(=O)[C@@H]7C[C@@H](O)CN7C(=O)[C@@H](NC(=O)C7(F)CC7)C(C)(C)C)c7ccc(-c8scnc8C)cc7)CC6)cc5)CC4)n3)n2)c1` [Example 85, (2S,4R)-1-((S)-2-(1-fluorocyclopropane-1-carboxamido)-3,3-dimethylbutanoyl)-4-hydroxy-N—((S)-1-(4-(4-methylthiazol-5-yl)phenyl)-4-(4-(4-(4-((4-morpholino-6-(3-(m-tolyl)-1H-pyrazol-1-yl)pyrimidin-2-yl)oxy)piperidin-1-yl)phenyl)piperazin-1-yl)-4-oxobutyl) pyrrolidine-2-carboxamide], the DC50 was 1 to 100 nM.

For `Cc1cccc(-c2ccn(-c3cc(N4CCOCC4)nc(OC4CCN(c5ccc(NC(=O)C[C@H](NC(=O)[C@@H]6C[C@@H](O)CN6C(=O)[C@@H](NC(=O)C6(F)CC6)C(C)(C)C)c6ccc(-c7scnc7C)cc6)cc5)CC4)n3)n2)c1` [Example 67, (2S,4R)-1-((S)-2-(1-fluorocyclopropane-1-carboxamido)-3,3-dimethylbutanoyl)-4-hydroxy-N—((S)-1-(4-(4-methylthiazol-5-yl)phenyl)-3-((4-(4-((4-morpholino-6-(3-(m-tolyl)-1H-pyrazol-1-yl)pyrimidin-2-yl)oxy)piperidin-1-yl)phenyl)amino)-3-oxopropyl)pyrrolidine-2-carboxamide], the DC50 was in the range of 1 to 100 nM.

With `Cc1cccc(/C=N/Nc2cc(N3CCOCC3)nc(OCCc3ccc(NC(=O)CC[C@H](NC(=O)[C@@H]4C[C@@H](O)CN4C(=O)[C@@H](NC(=O)C4(F)CC4)C(C)(C)C)c4ccc(-c5scnc5C)cc4)cc3)n2)c1` [Example 49, (2S,4R)-1-((S)-2-(1-fluorocyclopropane-1-carboxamido)-3,3-dimethylbutanoyl)-4-hydroxy-N—((S)-4-((4-(2-((4-(2-((E)-3-methylbenzylidene)hydrazino)-6-morpholinopyrimidin-2-yl)oxy)ethyl)phenyl)amino)-1-(4-(4-methylthiazol-5-yl)phenyl)4-oxobutyl)pyrrolidine-2-carboxamide], the DC50 fell in the range of 1 to 100 nM.

On to `Cc1cccc(/C=N/Nc2cc(N3CCOCC3)nc(OCCNC(=O)CCCCC(=O)N[C@H](C(=O)N3C[C@H](O)C[C@H]3C(=O)NCc3ccc(-c4scnc4C)cc3)C(C)(C)C)n2)c1` [Example 62, N^1—((S)-1-((2S,4R)-4-hydroxy-2-((4-(4-methylthiazol-5-yl)benzyl)carbamoyl)pyrrolidine-1-yl)-3,3-dimethyl-1-oxobutan-2-yl)-N^6-(2-((4-(2-((E)-3-methylbenzylidene) hydrazino)-6-morpholinopyrimidin-2-yl)oxy)ethyl)adipamide], for which the DC50 is 100 to 10000 nM.

Consider `Cc1cccc(/C=N/Nc2cc(N3CCOCC3)nc(OCCc3ccc(NC(=O)CCCCCNc4ccc5c(c4)C(=O)N(C4CCC(=O)NC4=O)C5=O)cc3)n2)c1` (stereo not drawn) [Example 17, (E)-6-((2-(2,6-dioxopiperidin-3-yl)-1,3-dioxoisoindolin-5-yl)amino)-N-(4-(2-((4-(2-(3-methylbenzylidene)hydrazino)-6-morpholinopyrimidin-2-yl)oxy)ethyl)phenyl) hexanamide], for which the DC50 fell in the range of 100 to 10000 nM.
